Positions of bridges follow the written chain, without caps; N, C: chain ends. Non-standard residues stand in square brackets, D forms with d. Residues, ends and D or L forms follow the SMILES beside them. *: point of attachment. X1 = CC[C@H](C)CCCCC(=O)*; Dab = NCC[C@H](N)C(=O)O
Assays:
[1] = rats, cited from earlier work
From the text: Following the validation of the present analytical method, the method was applied to estimate the pharmacokinetic profile of colistin in experimental rats. Choosing the animal species to perform the pharmacokinetic study was based on the similarity of colistin pharmacokinetic profile between animal species and humans. […] The species that has the closest pharmacokinetic profile to humans are rats[43]–[45]. […] This is because of a distribution phase that occurs before the decline in the colistin concentration. This finding is in agreement with previous reports[43],[44],[49]. In the present study, we observed that colistin concentration declined rapidly over 180–240 min which is consistent with earlier findings[45],[49]. […] In the present study, the Vd of colistin was 2.45 ± 1.30 L/kg in ...

[2] = Freeze-thaw stability of colistin in rat plasma QC samples; settings: −70 °C to 25 °C after 24 hours, five cycles, n = 4; for Found concentration after freeze-thaw: LC-MS/MS, mean ± S.D., SD
Protocol: (§1) Colistin sulfate was prepared by dissolving 5.5 mg of the powder in 5 ml water to make a stock solution of 1 mg/ml of colistin. PMB sulfate solution of 1 mg/ml was also prepared by dissolving 5.8 mg of PMB sulfate powder in 5 ml water. Both solutions were stored at −70 °C. Calibration standards and quality controls were prepared by spiking different amounts of colistin sulfate stock solution in plasma. Aliquots of colistin sulfate were further diluted to provide standard concentrations of 0.5, 1, 2, 5, 10, 15, and 20 μg/mL (equivalent to: 78, 156, 312, 780, 1560, 2340 and 3120 ng/ml of colistin A and 353, 706, 1412, 3350, 7060, 10590 and 14120 ng/ml of colistin B) whereas, the concentrations of 1.5, 3.5, 7.5 and 17.5 μg/mL (which contained 234, 546, 1170 and 2730 ng/ml of colistin A and 1059, 2471, 5295 and 12355 ng/ml of colistin B) were considered as quality controls. The calibration standards and quality controls were aliquoted (150 μL) into 0.5 ml Eppendorf tubes and stored at −70 °C pending analysis.
(§2) To 100 μl rat plasma sample, 5 μl of 500 μg/ml IS was added and followed by addition of 400 μl of 50:50 (v/v) methanol-TCA (10%). The samples were vortex-mixed for 1 min, rota-mixed for 10 min at 40 rpm and then centrifuged at 12,000 rpm for 10 min. Following centrifugation, 400 µl of the supernatant was collected and re-extracted with solid phase extraction (SPE) using SPE (Oasis HLB 1 cc, 30 mg) cartridges. First, the cartridges were conditioned with 500 μl of methanol then 500 μl of water. After that, 400 μl of the supernatant was transferred and then washed with 500 μl of water. The tubes were changed and then the samples were eluted with 150 μl of methanol: water: formic acid (80:19:1%, v/v/v) solution. The elution step was repeated twice, and then 250 μl of the solution was transferred to the low volume inserts and 20 μl of this solution was injected into the LC-MS system.
(§3) Various types of stability tests including freeze-thaw stability and long-term stability were assessed. The freeze-thaw stability test was performed by removing the four QC samples out of the storage temperature (−70 °C) and keeping them at room temperature (25 °C) until thawing and then aliquots of the samples were analyzed. After that, the samples were again returned back for freezing in the same storage conditions for 12 to 24 h. The freeze-thaw cycles were repeated five times and 4 replicates of the analytes were assayed. In addition, a long-term stability test was performed to ensure that the stability of the samples for a time that exceeds the interval between the first sample collection and the last sample analysis. Four aliquots of low, medium and high concentrations (QC) were kept for 20 days in the same temperature used to store samples regularly at the lab (−70 °C) then analyzed and compared to the nominal concentration of freshly prepared QC samples. Moreover, the stability in the autosampler (4 °C) was assessed by keeping the processed samples under this condition and assayed periodically at different times for up to 24 hours. In addition, benchtop stability test was performed by keeping the samples at room temperature (25 °C) for six hours and analyzing them during this time. The mean value results of stability tests were calculated and compared to the nominal concentrations.

[3] = Long-term stability of colistin in rat plasma QC samples at −70 °C; settings: 20 days; for Found concentration after long-term storage: LC-MS/MS, mean ± S.D., n = 5, SD; for Bias% from nominal concentration after long-term storage: n = 5
Protocol: as §1, §2, §3

[4] = Autosampler stability of processed colistin rat plasma samples at 4 °C; settings: 4 °C for 24 hours, n = 4; for Found concentration in autosampler stability study: LC-MS/MS, mean ± S.D., SD
Protocol: as §1, §2, §3

[5] = Benchtop stability of colistin in rat plasma samples at room temperature; settings: 25 °C for 6 hours, n = 4; for Found concentration in benchtop stability study: LC-MS/MS, mean ± S.D., SD
Protocol: as §1, §2, §3

[6] = Pharmacokinetic study of colistin in rats after IV colistin sulfate, plasma LC-MS/MS, non-compartmental analysis; settings: male, Sprague Dawley, rat, 15 mg/kg
Protocol: as §2
Male Sprague Dawley® (MSD) rats (21 weeks ± 3 days of age) with a body weight of 450–550 g [supplied by the Animal Resource Center (ARC), Health Sciences Center (HSC), Kuwait University] were used to estimate the pharmacokinetic profile of colistin. The animals (n = 8) were housed in 12 h/12 h light/dark cycle. […] All the animals were subjected to left jugular vein cannulation, IV drug administration, and subsequent blood sampling. All surgical procedures were carried out under strict aseptic conditions. In addition, all surgical instruments and materials were autoclaved, all solutions were sterile and the surgical procedure was performed with the aid of surgical microscope (Leica wild M690). Animal body temperatures were maintained around 37.6 °C (rectal) by placing the animals on an electronic heating pad throughout the surgical procedure as well as the post-surgical recovery period. About 350 µl of rat blood sample was collected from each animal. From this sample, 50 µl of blood sample was transferred to a capillary tube, sealed with the sealant clay at one end and centrifuged to calculate the Packed Cell Volume (PCV); i.e., Hematocrit. The remaining rat blood sample (300 µl) was centrifuged at 9000 X g for 10 min and aliquots of 100 µl of plasma sample was collected and stored at −70 °C pending analysis.
Colistin was quantified in the biological samples by the present LC-MS/MS method and then the pharmacokinetic parameters (t1/2, CL, Vd, AUC) were estimated by non-compartmental method employing Kinetica® software, version 5.1 (Thermo Fisher Scientific, Waltham, USA).

[7] = rat plasma QC 1.5 μg/mL colistin (nominal 234 ng/ml colistin A, 1059 ng/ml colistin B)
[8] = rat plasma QC 3.5 μg/mL colistin (nominal 546 ng/ml colistin A, 2471 ng/ml colistin B)
[9] = rat plasma QC 7.5 μg/mL colistin (nominal 1170 ng/ml colistin A, 5295 ng/ml colistin B)
[10] = rat plasma QC 17.5 μg/mL colistin (nominal 2730 ng/ml colistin A, 12355 ng/ml colistin B)
[11] = processed rat plasma QC 1.5 μg/mL colistin (nominal 234 ng/ml colistin A, 1059 ng/ml colistin B)
[12] = processed rat plasma QC 3.5 μg/mL colistin (nominal 546 ng/ml colistin A, 2471 ng/ml colistin B)
[13] = processed rat plasma QC 7.5 μg/mL colistin (nominal 1170 ng/ml colistin A, 5295 ng/ml colistin B)
[14] = processed rat plasma QC 17.5 μg/mL colistin (nominal 2730 ng/ml colistin A, 12355 ng/ml colistin B)

In the case of `CC[C@H](C)CCCCC(=O)N[C@@H](CCN)C(=O)N[C@H](C(=O)N[C@@H](CCN)C(=O)N[C@H]1CCNC(=O)[C@H]([C@@H](C)O)NC(=O)[C@H](CCN)NC(=O)[C@H](CCN)NC(=O)[C@H](CC(C)C)NC(=O)[C@@H](CC(C)C)NC(=O)[C@H](CCN)NC1=O)[C@@H](C)O` [Colistin A, colistin A] (X1-[Dab]T[Dab][Dab][Dab][dL]L[Dab][Dab]T; lactam 4-C), the “CL of the individual components” value ([1]; Sivanesan and co-workers, ref 45 (sentence ends with 41)) is listed as 2.75 ± 0.54 mL/min/kg, the “t1/2 of the major components” value [1] is listed as 1.37 ± 0.515 h and the “Found concentration after freeze-thaw” value [2, 7] is listed as 265.4 ± 35.10 ng/mL. For the same molecule, the “Bias% from nominal concentration after freeze-thaw” value (from here on “Bias% … after freeze-thaw”) [2, 7] was 13.42%, the “Found concentration after freeze-thaw” value [2, 8] was 615.27 ± 30.29 ng/mL and the “Bias% … after freeze-thaw” value [2, 8] was 12.69%. The “Found concentration after freeze-thaw” value [2, 9] was 1208.93 ± 77.51 ng/mL, the “Bias% … after freeze-thaw” value [2, 9] was 3.33% and the “Found concentration after freeze-thaw” value [2, 10] was 2551.83 ± 177.97 ng/mL. The “Bias% … after freeze-thaw” value [2, 10] was −6.53%, the “Found concentration after long-term storage” value [3, 7] was 237.24 ± 5.64 ng/mL and the “Bias% from nominal concentration after long-term storage” value (from here on “Bias% … after long-term storage”) [3, 7] was 1.39%. For the same molecule, the “Found concentration after long-term storage” value [3, 8] was 520.76 ± 19.46 ng/mL, the “Bias% … after long-term storage” value [3, 8] was −4.62% and the “Found concentration after long-term storage” value [3, 9] was 1134.44 ± 26.11 ng/mL. For the same molecule, the “Bias% … after long-term storage” value [3, 9] was −3.04%, the “Found concentration after long-term storage” value [3, 10] was 2719 ± 50.20 ng/mL and the “Bias% … after long-term storage” value [3, 10] was −0.40%. The “Found concentration in autosampler stability study” value [4, 11] was 231.18 ± 6.22 ng/mL, the “Bias% from nominal concentration in autosampler stability study” value (“Bias% … in autosampler stability study” below) [4, 11] was −1.21% and the “Found concentration in autosampler stability study” value [4, 12] was 516.95 ± 53.28 ng/mL. For the same molecule, the “Bias% … in autosampler stability study” value [4, 12] was −5.32%, the “Found concentration in autosampler stability study” value [4, 13] was 1034.9 ± 38.64 ng/mL and the “Bias% … in autosampler stability study” value [4, 13] was −11.55%. The “Found concentration in autosampler stability study” value [4, 14] was 2917.93 ± 341.07 ng/mL, the “Bias% … in autosampler stability study” value [4, 14] was 6.88% and the “Found concentration in benchtop stability study” value [5, 7] was 120.275 ± 50.32 ng/mL. The “Bias% from nominal concentration in benchtop stability study” value (from here on “Bias% … in benchtop stability study”) [5, 7] was −48.6%, the “Found concentration in benchtop stability study” value [5, 8] was 592.47 ± 488.56 ng/mL and the “Bias% … in benchtop stability study” value [5, 8] was 8.51%. For the same molecule, the “Found concentration in benchtop stability study” value [5, 9] was 1047.6 ± 202.94 ng/mL, the “Bias% … in benchtop stability study” value [5, 9] was −10.46% and the “Found concentration in benchtop stability study” value [5, 10] was 5045 ± 3076.10 ng/mL. For the same molecule, the “Bias% … in benchtop stability study” value [5, 10] was 84.8% and the level at 0.5 h [6] was 4110 ng/mL.

— paper PMC7234998, “Quantification of Colistin in Plasma by Liquid Chromatography-Tandem Mass Spectrometry: Application to a Pharmacokinetic Study” (Scientific Reports, 2020)
